The target of series [1] is T1, human 11β-HSD1 (Homo sapiens, UniProt P28845).
T1 construct: The assay uses human liver microsomes (HLM), where the enzyme is expressed; tissue Celsis In-vitro Technologies; host or cells: mixed sex human liver microsomes
The series can be described thus: 11β-HSD1 enzyme inhibition assay in human liver microsomes (3H-cortisone to 3H-cortisol, SPA). The class given is biochemical. The note with it: for inhibition at 10 µM: read-out: hHSD1 % inh at 10 µM; for IC50: read-out: hHSD1 IC50. On the procedure:
A preliminary screen was performed using a human microsome assay with compounds at 10 µM in order to assess their potential inhibition of the target enzyme (Table 2). Percentage of inhibition was determined by measuring the conversion of ^3H-cortisone to ^3H-cortisol by capturing liberated ^3H-cortisol on anti-cortisol (HyTest Ltd., Turku, Finland)-coated scintillation proximity assay beads. The assay uses human liver microsomes (HLM), where the enzyme is expressed, and NADPH as the cofactor needed by the enzyme. Eight of the thirteen new compounds presented 100% inhibition of the human 11β-HSD1 in this single concentration assay, so dose-response curves were performed to get their IC50 values.
11β-HSD1 activity was determined in mixed sex, human liver microsomes (HLM, Celsis In-vitro Technologies) by measuring the conversion of ^3H-cortisone to ^3H-cortisol. Percentage inhibition was determined relative to a no inhibitor control. An amount of 5 μg of HLM were pre-incubated at 37 °C for 15 min with inhibitor and 1 mM NADPH in a final volume of 90 μL Krebs buffer. 10 μL of 200 nM ^3H-cortisone was then added followed by incubation at 37 °C for a further 30 min. The assay was terminated by rapid freezing on dry ice and ^3H-cortisone to ^3H-cortisol conversion determined in 50 μL of the defrosted reaction by capturing liberated ^3H-cortisol on anti-cortisol (HyTest Ltd)-coated scintillation proximity assay beads (protein A-coated YSi, GE Healthcare). Reported values are the average of 1–3 measurements. A nanomolar 11β-HSD1 inhibitor, UE2316, was added as a positive control within in each set of assays.
(In general: Liver microsomes are vesicles of endoplasmic reticulum, rich in cytochrome P450 enzymes.)

For series [2], the target named is T1, human 11β-HSD1. Kind of series: Cellular 11β-HSD1 enzyme inhibition assay (HEK293 stably transfected, cortisol by LC/MS). The note with it: for inhibition at 10 µM: HEK293 transfected with human 11β-HSD1, read-out: HEK hHSD1 % inh at 10 µM. It is filed as cell-based. As for the experimental part:
Those compounds with submicromolar IC50 values (4, 6, 8, 9 and 16) were further evaluated in terms of cellular potency, selectivity over 11β-HSD2, and metabolic stability as follows (Table 2, 5th, 6th, and 7th column, respectively). Cellular potency was assessed using Human Embryonic Kidney 293 (HEK293) cells stably transfected with the 11β-HSD1 gene. Cells were incubated with substrate (cortisone) and percentage of inhibition was determined by measuring the conversion of cortisone to cortisol by LC/MS. The results were in line with the previous results obtained in the microsomal assay.
The cellular 11β-HSD1 enzyme inhibition assay was performed using HEK293 cells stably transfected with the human 11β-HSD1 gene. Cells were incubated with substrate (cortisone) and product (cortisol) was determined by LC/MS. Cells were plated at 2 × 10^4 cells/well in a 96-well poly-D-lysine coated tissue culture microplate (Greiner Bio-one, Monroe, NC, USA) and incubated overnight at 37 °C in 5% CO2 […]. Compounds to be tested were solubilized in 100% dimethylsulfoxide (DMSO) at 10 mM and serially diluted in water and 10% DMSO to final concentration of 10 µM in 10% DMSO. Then 10 µL of each test dilution and 10 µL of 10% DMSO (for low and high control) were dispensed into the well of a new 96-well microplate (Greiner Bio-one). Medium was removed from the cell assay plate and 100 µL of Dulbecco’s Modified Eagle’s Medium DMEM solution (containing 1% penicillin, 1% streptomycin and 300 nM cortisone) added to each well. Cells were incubated for 2 h at 37 °C in 5% CO2 […]. Following incubation, medium was removed from each well into an Eppendorf containing 500 µL of ethyl acetate, mixed by vortex and incubated at r.t. for 5 min. A calibration curve of known concentrations of cortisol in assay medium was also set up and added to 500 µL of ethyl acetate, vortexed and incubated as above. The supernatant of each Eppendorf was removed to a 96-deep-well plate and dried down under […] at 65 °C. Each well was solubilized in 100 µL 70:30 H2O:acetonitrile (ACN) and removed to a 96-well V-bottomed plate for LC/MS analysis. Separation was carried out on a Sunfire 150 × 2.1 mm, […] column using a H2O:ACN gradient profile. Typical retention times were 2.71 min for cortisol and 2.80 min for cortisone. The peak area was calculated and the concentration of each compound determined from the calibration curve. Reported values are the average of 1–3 measurements.

For the next series, the target named is T2, human 11β-HSD2 (Homo sapiens, UniProt P80365).
T2 construct: stably transfected with the full-length gene coding for human 11β-HSD2; expressed in transfected cells; host or cells: HEK293
T2 sequence (P80365 1-405): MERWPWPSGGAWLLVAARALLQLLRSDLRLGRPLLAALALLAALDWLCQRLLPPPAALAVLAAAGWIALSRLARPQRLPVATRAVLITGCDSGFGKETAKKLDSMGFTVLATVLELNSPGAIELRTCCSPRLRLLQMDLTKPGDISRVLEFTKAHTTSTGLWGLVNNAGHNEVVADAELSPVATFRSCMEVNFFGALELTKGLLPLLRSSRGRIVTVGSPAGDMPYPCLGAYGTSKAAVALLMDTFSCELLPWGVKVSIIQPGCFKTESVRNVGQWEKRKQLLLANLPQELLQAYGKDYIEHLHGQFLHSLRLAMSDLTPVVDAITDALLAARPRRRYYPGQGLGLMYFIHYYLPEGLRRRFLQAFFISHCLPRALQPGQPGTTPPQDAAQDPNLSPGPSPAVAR
Kind of series: Cellular 11β-HSD2 enzyme inhibition assay (HEK293 stably transfected). It is filed as cell-based. To be noted: for inhibition at 10 µM: HEK293, 10 µM, read-out: HEK hHSD2 % inh at 10 µM. As for the experimental part: (§1) Selectivity over 11β-HSD2 was also assessed in a cell-based assay using the same methodology as before (HEK293 stably transfected with the 11β-HSD2 gene). […] Finally, metabolic stability was determined using HLM, which are widely used to predict the degree of primary metabolic clearance in the liver. Each compound was incubated over 30 min with HLM and the percentage of remaining compound after this incubation period was determined by calculating compound concentration after and before by LC/MS.
For measurement of inhibition of 11β-HSD2, HEK293 cells stably transfected with the full-length gene coding for human 11β-HSD2 were used. The protocol was the same as for the cellular 11β-HSD1 enzyme inhibition assay, only changing the substrate, this time cortisol, and the concentrations of the tested compounds, 10, 1, and 0.1 µM. Reported values are the average of 1–3 measurements.

Series [3] in a line: Microsomal stability assay in human liver microsomes. It is filed as in vitro ADME. To be noted: remaining compound after 30-min incubation in HLM. On the procedure: as §1
The microsomal stability of each compound was determined using human liver microsomes (HLM, Celsis In-vitro Technologies, Baltimore, MD, USA). Microsomes were thawed and diluted to a concentration of 2 mg/mL in 50 mM sodium phosphate buffer pH 7.4. Each compound was diluted in 4 mM NADPH (made in the phosphate buffer above) to a concentration of 10 µM. Two identical incubation plates were prepared to act as a 0 min and a 30 min time point assay. 30 µL of each compound dilution was added in duplicate to the wells of a U-bottom 96-well plate and warmed at 37 °C for approximately 5 min. Verapamil, lidocaine, and propranolol at 10 µM concentration were utilized as reference compounds in this experiment. Microsomes were also pre-warmed at 37 °C before the addition of 30 µL to each well of the plate resulting in a final concentration of 1 mg/mL. The reaction was terminated at the appropriate time point (0 or 30 min) by addition of 60 µL of ice-cold 0.3 M trichloroacetic acid (TCA) per well. The plates were centrifuged for 10 min at 112× g and the supernatant fraction transferred to a fresh U-bottom 96-well plate. Plates were sealed and frozen at −20 °C prior to MS analysis. LC-MS/MS was used to quantify the peak area response of each compound before and after incubation with HLM using MS tune settings established and validated for each compound. These peak intensity measurements were used to calculate the percentage remaining after incubation with HLM for each hit compound. Reported values are the average of 1–3 measurements.

Setting [4] is: 10 µM, human liver microsomes, relative to no inhibitor control.
The mark [5] stands for this setting: HEK293 transfected with human 11β-HSD2.

Values joined by “and” are separate entries in the source; they are usually repeats but may differ in a detail not shown here. Equal entries are not always repeated.

T1 sequence (P28845 whole entry): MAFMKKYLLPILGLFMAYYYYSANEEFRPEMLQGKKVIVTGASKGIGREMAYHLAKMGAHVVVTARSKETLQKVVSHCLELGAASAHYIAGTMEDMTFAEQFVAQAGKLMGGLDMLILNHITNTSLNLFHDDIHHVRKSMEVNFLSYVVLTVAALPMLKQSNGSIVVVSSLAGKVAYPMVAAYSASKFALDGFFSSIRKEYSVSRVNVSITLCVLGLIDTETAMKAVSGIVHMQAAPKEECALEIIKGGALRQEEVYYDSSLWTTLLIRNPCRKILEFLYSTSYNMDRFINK

The compound `O=C(c1ccc(Cl)nc1)N1CC2C3C=CC(C4CC34)C2C1` (stereo not drawn) [Compound 10, (4-Azatetracyclo[5.3.2. 0^2,6.0^8,10]dodec-11-en-4-yl) (6-chloropyridin-3-yl)methanone] showed a melting point of 101 to 102 °C.
On to `O=C(c1ccc(N2CCN(c3ccccc3)CC2)nc1)N1CC2C3C=CC(C4CC34)C2C1` (stereo not drawn) [Compound 14, (4-Azatetracyclo[5.3.2.0^2,6.0^8,10]dodec-11-en-4-yl)[6-(4-phenylpiperazin-1-yl)pyridin-3-yl]methanone], for which the melting point is 90 to 91 °C. In addition, at human 11β-HSD1 [1] (setting [4]), the inhibition at 10 µM stood at 100%. Besides, on human 11β-HSD1 [1] (human liver microsomes), the half-inhibitory concentration (IC50) was 5.44 µM.
`O=C(c1cccs1)N1CC2C3C=CC(C4CC34)C2C1` (stereo not drawn) [Compound 7, (4-Azatetracyclo[5.3.2.0^2,6.0^8,10]dodec-11-en-4-yl)(thien-2-yl)methanone] showed a melting point of 104 to 105 °C. For the same compound, at human 11β-HSD1 [1] (setting [4]), the “hHSD1 % inh at 10 µM” value was 49% and the inhibition at 10 µM was < 50%.
`CC(=O)N1CCC(C(=O)N2CC3C4C=CC(C5CC45)C3C2)CC1` (stereo not drawn) [Compound 13, 1-[[4-(4-Azatetracyclo[5.3.2. 0^2,6.0^8,10]dodec-11-en-4-yl)carbonyl]piperidin-1-yl]ethan-1-one]: the melting point was 134 to 135 °C.
In turn, `O=C(c1ccc(N2CCN(c3ccc(C(F)(F)F)cc3)CC2)nc1)N1CC2C3C=CC(C4CC34)C2C1` (stereo not drawn) [Compound 15, (4-Azatetracyclo[5.3.2.0^2,6.0^8,10]dodec-11-en-4-yl)[6-[4-(4-trifluoromethyl)phenylpiperazin-1-yl]pyridin-3-yl]methanone] displayed a melting point of 157 to 158 °C. The inhibition at 10 µM at human 11β-HSD1 [1] (setting [4]) is 100%. In addition, the IC50 at human 11β-HSD1 [1] (human liver microsomes) came to 11.6 µM.
`N#Cc1ccc(N2CCN(c3ccc(C(=O)N4CC5C6C=CC(C7CC67)C5C4)cn3)CC2)cc1` (stereo not drawn) [Compound 16, 4-[[4-[5-(4-Azatetracyclo[5.3.2. 0^2,6.0^8,10]dodec-11-en-4-yl)carbonyl]pyridin-2-yl]piperazin-1-yl]benzonitrile] came in with a melting point of 160 to 161 °C. Further, the inhibition at 10 µM at human 11β-HSD1 [1] (setting [4]) turned out to be 100%. The IC50 at human 11β-HSD1 [1] (human liver microsomes) worked out at 0.377 µM. The “HEK hHSD1 % inh at 10 µM” value on human 11β-HSD1 [2] (HEK293 transfected with human 11β-HSD1) is recorded as “complete inhibition”. For the same compound, the inhibition at 10 µM at human 11β-HSD1 [2] stood at 100%. Besides, at human 11β-HSD2 (10 µM, HEK293 transfected with human 11β-HSD2), the “HEK hHSD2 % inh at 10 µM” value was 53%. The “selectivity index over 11β-HSD2” value on human 11β-HSD2 (11β-HSD2 IC50 versus 11β-HSD1 IC50) is listed as 30 fold. Besides, the inhibition at 10 µM on human 11β-HSD2 (setting [5]) was found to be 54%. Moreover, the IC50 on human 11β-HSD2 (inferred from 54% inhibition at 10 µM in HEK293 cells, read-out: IC50 against 11β-HSD2) was ~10 µM. In addition, the “HLM % Parent” value in series [3] came out at 13%.
`O=C(c1ccccn1)N1CC2C3C=CC(C4CC34)C2C1` (stereo not drawn) [Compound 5, (4-Azatetracyclo[5.3.2.0^2,6.0^8,10]dodec-11-en-4-yl)(pyridin-2-yl)methanone] displayed a melting point of 110 to 111 °C. Also, the inhibition at 10 µM at human 11β-HSD1 [1] (setting [4]) came out at 100%. Moreover, the IC50 on human 11β-HSD1 [1] (human liver microsomes) was 4.3 µM and 4.27 µM.
In turn, `CN1CCC(C(=O)N2CC3C4C=CC(C5CC45)C3C2)CC1` (stereo not drawn) [Compound 12, (4-Azatetracyclo[5.3.2. 0^2,6.0^8,10]dodec-11-en-4-yl)(1-methylpiperidin-4-yl)methanone] registered a melting point of 100 to 101 °C.
For the compound `CC(C)(C)C(=O)N1CC2C3C=CC(C4CC34)C2C1` (stereo not drawn) [Compound 6, (4-Azatetracyclo[5.3.2. 0^2,6.0^8,10]dodec-11-en-4-yl)(tert-butyl)methanone], the melting point lay in the range of 91 to 92 °C. Besides, the inhibition at 10 µM on human 11β-HSD1 [1] (setting [4]) amounted to 100%. Also, the IC50 on human 11β-HSD1 [1] (human liver microsomes) was 0.666 µM. Further, on human 11β-HSD1 [2], the inhibition at 10 µM was found to be 41%. Also, on human 11β-HSD2 (setting [5]), the inhibition at 10 µM was 71%. In addition, in series [3], the “HLM % Parent” value was determined as 60%.
For the compound `O=C(c1ccnc(Cl)c1)N1CC2C3C=CC(C4CC34)C2C1` (stereo not drawn) [Compound 11, (4-Azatetracyclo[5.3.2. 0^2,6.0^8,10]dodec-11-en-4-yl)(2-chloropyridin-4-yl)methanone], the melting point was in the range of 135 to 136 °C.
For the compound `O=C(c1csc(-c2cn[nH]c2)c1)N1CCC(F)(c2ccccc2Cl)CC1` [UE2316, reference compound], the “IC50 of positive control” value at human 11β-HSD1 [1] (positive control within each set of assays, normal range per ref 20) is reported as “within the normal range”.

The term melting point denotes the temperature of the solid-liquid transition. Usually IC50 stands for the concentration that inhibits the measured activity by half.

Source of the values: paper PMC6017749, “Exploring N-acyl-4-azatetracyclo[5.3.2.0^2,6.0^8,10]dodec-11-enes as 11β-HSD1 Inhibitors” (Molecules : A Journal of Synthetic Chemistry and Natural …, 2018).
